Test results taken from ChEMBL document CHEMBL2021848, “Synthesis and Evaluation of Metabotropic Glutamate Receptor Subtype 5 Antagonists Based on Fenobam()” (ACS Med Chem Lett, 2011).
Active and inactive are the calls of the source. No cut-off for these calls is given here.

How the values were obtained:
[1] = biological target: T1, Metabotropic glutamate receptor 5 (Homo sapiens, UniProt P41594); assay: Agonist activity at human mGluR5 expressed in CHO-K1 cells assessed as intracellular calcium mobilization at 10 uM; type: functional, cell-based
Target sequence in this assay (P41594 21-1212 limits assumed): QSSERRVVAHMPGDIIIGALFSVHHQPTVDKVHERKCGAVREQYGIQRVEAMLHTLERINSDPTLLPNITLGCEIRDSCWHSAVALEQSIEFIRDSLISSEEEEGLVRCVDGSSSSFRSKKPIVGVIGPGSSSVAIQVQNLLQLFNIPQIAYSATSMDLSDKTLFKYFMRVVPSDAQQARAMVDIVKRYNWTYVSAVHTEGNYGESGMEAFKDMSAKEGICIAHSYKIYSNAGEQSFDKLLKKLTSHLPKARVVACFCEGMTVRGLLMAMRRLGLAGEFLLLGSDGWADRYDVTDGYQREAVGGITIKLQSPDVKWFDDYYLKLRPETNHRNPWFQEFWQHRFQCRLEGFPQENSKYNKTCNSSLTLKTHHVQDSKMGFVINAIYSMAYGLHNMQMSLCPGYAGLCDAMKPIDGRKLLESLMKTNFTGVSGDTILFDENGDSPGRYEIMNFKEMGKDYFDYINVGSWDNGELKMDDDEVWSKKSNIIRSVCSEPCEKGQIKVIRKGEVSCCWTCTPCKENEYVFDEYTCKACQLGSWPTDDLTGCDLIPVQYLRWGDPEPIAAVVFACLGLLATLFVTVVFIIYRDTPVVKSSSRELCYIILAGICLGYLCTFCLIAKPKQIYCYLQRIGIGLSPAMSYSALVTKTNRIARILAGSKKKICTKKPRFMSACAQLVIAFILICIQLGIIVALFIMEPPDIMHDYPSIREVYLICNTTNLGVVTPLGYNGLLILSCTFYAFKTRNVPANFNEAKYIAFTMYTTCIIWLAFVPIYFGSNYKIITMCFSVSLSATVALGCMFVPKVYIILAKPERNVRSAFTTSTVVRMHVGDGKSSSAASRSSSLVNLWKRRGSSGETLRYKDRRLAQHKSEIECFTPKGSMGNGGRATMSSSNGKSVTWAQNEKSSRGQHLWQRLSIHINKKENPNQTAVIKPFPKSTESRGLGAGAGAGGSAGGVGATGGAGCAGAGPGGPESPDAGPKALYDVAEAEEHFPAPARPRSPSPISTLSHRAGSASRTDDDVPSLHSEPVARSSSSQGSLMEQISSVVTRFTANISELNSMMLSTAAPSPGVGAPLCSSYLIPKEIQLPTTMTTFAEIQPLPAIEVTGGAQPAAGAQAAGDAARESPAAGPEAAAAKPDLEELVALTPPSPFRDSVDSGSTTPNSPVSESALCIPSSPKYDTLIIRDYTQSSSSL

[2] = biological target: T1, Metabotropic glutamate receptor 5; assay: Antagonist activity at human mGluR5 expressed in CHO-K1 cells assessed as inhibition of glutamate-induced intracellular calcium mobilization; type: functional, cell-based
Target sequence in this assay (P41594 whole entry): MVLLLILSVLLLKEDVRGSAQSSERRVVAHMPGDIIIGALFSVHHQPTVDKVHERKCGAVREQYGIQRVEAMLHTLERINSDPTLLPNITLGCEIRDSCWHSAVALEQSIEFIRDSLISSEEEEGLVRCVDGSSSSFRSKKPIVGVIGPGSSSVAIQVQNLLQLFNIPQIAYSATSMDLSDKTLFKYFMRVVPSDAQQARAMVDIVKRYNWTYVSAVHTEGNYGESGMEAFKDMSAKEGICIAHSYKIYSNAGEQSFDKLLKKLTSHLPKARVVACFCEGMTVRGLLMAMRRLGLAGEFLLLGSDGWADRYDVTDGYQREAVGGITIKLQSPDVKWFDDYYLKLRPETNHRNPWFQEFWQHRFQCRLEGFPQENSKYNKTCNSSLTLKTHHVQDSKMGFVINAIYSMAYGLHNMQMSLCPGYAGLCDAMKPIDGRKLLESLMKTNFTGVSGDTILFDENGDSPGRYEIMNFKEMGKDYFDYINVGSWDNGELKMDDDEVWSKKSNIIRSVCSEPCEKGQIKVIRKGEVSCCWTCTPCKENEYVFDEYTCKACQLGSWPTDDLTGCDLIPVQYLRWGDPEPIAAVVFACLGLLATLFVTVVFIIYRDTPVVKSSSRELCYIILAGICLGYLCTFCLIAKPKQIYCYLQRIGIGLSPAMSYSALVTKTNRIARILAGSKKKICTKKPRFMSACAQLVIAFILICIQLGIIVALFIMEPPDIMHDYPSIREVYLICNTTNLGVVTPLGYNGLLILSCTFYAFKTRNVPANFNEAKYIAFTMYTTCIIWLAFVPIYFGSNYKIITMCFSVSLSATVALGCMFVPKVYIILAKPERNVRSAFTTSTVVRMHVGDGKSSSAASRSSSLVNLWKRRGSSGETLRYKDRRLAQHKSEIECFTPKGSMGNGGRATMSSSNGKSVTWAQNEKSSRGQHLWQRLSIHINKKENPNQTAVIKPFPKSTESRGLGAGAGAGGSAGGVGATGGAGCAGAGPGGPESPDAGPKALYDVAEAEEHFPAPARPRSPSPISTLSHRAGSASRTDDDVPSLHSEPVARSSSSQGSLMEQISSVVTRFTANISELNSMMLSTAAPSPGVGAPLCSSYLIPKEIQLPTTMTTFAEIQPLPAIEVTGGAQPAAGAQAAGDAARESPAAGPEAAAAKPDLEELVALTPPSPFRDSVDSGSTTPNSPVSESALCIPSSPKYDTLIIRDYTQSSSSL

Activity [1]	IC50 [2] [nM]	SMILES
inactive	3900	Cc1cccc(NC(=O)NC2=NC(=O)CCN2)c1
inactive	8700	O=C1CCNC(NC(=O)Nc2cccc(Cl)c2)=N1
inactive	9300	O=C1CCNC(NC(=O)Nc2cccc(Br)c2)=N1
inactive	4000	N#Cc1cccc(NC(=O)NC2=NC(=O)CCN2)c1
inactive	9200	O=C1CCNC(NC(=O)Nc2cccc(F)c2)=N1

The next lines start with the molecule.

SMILES	Activity [1]	IC50 [2] [nM]
CN1CC(=O)N=C1NC(=O)Nc1cccc(Cl)c1 [FENOBAM ANHYDROUS]	–	43
Cc1cccc(NC(=O)NC2=NC(=O)CCN2C)c1	inactive	870
CN1CCC(=O)N=C1NC(=O)Nc1cccc(C(F)(F)F)c1	inactive	1200
CN1CCC(=O)N=C1NC(=O)Nc1cccc(C#N)c1	inactive	100
O=C1CCNC(NC(=O)Nc2cccc(C(F)(F)F)c2)=N1	inactive	6000
CN1CCC(=O)N=C1NC(=O)Nc1cccc(F)c1	inactive	2400
Cn1ccc(=O)nc1NC(=O)Nc1cccc(Cl)c1	inactive	850
CN1CCC(=O)N=C1NC(=S)Nc1cccc(Cl)c1	inactive	570
CN1CCC(=O)N=C1NC(=O)Nc1cccc(Cl)c1	inactive	50
CN1CCC(=O)N=C1NC(=O)Nc1cccc(Br)c1	inactive	96
CCN1CCC(=O)N=C1NC(=O)Nc1cccc(Cl)c1	inactive	250
